Data as given in article PMC3391414 (Journal of Agricultural and Food Chemistry, 2011).
“Also recorded” adds a separate entry of the source. Where two headings read alike, the source gives them in different places.

Key:
UGT1A3 [1] = biological target: T1, UGT1A3 (Homo sapiens, UniProt P35503); conditions: pH 7.4
T1 sequence (P35503 29-534): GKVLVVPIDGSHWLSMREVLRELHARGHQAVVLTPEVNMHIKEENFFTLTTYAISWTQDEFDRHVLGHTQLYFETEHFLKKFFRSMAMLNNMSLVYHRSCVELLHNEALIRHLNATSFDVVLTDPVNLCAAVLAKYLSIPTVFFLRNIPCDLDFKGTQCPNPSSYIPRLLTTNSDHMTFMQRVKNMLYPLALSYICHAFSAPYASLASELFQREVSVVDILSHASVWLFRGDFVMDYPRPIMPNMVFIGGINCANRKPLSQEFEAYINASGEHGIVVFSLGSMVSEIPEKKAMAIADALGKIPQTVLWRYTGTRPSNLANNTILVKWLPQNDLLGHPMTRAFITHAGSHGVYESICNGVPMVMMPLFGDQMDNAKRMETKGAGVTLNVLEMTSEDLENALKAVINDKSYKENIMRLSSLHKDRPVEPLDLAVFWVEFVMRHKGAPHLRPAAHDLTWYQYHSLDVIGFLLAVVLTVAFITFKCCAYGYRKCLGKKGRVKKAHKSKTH

UGT1A8 = biological target: T2, UGT1A8 (Homo sapiens, UniProt Q9HAW9); conditions: 10 μM, pH 7.4
T2 sequence (Q9HAW9 26-530): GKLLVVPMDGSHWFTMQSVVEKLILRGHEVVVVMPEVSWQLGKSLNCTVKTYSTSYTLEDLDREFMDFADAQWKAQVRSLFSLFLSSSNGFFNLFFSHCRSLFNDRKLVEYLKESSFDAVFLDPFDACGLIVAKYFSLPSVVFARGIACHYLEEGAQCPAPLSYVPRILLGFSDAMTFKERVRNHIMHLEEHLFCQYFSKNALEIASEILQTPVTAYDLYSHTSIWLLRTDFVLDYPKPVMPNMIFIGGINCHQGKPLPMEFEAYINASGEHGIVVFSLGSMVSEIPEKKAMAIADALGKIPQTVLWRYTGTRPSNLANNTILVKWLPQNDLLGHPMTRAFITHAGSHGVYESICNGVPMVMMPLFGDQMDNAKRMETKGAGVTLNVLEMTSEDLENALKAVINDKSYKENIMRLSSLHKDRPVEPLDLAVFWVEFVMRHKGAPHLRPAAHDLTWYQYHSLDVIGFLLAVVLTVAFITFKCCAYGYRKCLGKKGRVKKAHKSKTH

UGT2B7 = biological target: T3, UGT2B7 (Homo sapiens, UniProt P16662); conditions: 10 μM, pH 7.4
T3 sequence (P16662 24-529): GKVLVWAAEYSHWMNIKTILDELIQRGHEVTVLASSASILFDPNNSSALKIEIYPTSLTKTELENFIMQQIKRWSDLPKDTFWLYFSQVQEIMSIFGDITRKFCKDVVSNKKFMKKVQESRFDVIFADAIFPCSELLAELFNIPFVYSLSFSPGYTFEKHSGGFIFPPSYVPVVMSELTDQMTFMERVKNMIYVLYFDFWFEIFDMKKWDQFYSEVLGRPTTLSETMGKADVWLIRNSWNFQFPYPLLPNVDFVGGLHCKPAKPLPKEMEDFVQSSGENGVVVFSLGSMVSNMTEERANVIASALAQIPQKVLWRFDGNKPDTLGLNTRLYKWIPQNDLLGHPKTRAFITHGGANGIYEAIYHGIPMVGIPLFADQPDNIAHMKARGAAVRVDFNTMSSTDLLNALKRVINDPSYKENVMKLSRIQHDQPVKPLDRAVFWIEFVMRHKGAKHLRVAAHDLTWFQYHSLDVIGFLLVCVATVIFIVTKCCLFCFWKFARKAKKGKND

UGT1A3 [2] = biological target: T1, UGT1A3; test: Glucuronidation by recombinant human UGT1A3

O=c1cc(-c2ccccc2)oc2cc(O)cc(O)c12 [5,7DHF, 5,7-dihydroxyflavone]
Degree of regiospecificity (major glucuronide in bracket) (UGT1A3 [1]; 2.5 μM): Dominant (7-O) | Hydroxyl positions glucuronidated (UGT1A3 [1]; 10 μM): glucuronidated 7-O position only | Hydroxyl positions glucuronidated (UGT1A8): glucuronidated 7-O position only | Hydroxyl positions glucuronidated (UGT2B7): glucuronidated both 7-O and 5-O positions

O=c1c(O)c(-c2ccc(O)cc2)oc2cc(O)cc(O)c12 [5,7,4'THFnol, 3,5,7,4’-tetrahydroxyflavone]
Degree of regiospecificity (major glucuronide in bracket) (UGT1A3 [2]; UGT1A3, substrate 2.5 μM): No (3-O, 7-O) | Degree of regiospecificity (major glucuronide in bracket) (UGT1A3 [2]; UGT1A3, substrate 10 μM): No (3-O, 7-O) | Hydroxyl positions glucuronidated (UGT1A3 [2]; UGT1A3, substrate 10 μM): glucuronidated 3-O, 7-O and 4’-O | Degree of regiospecificity (major glucuronide in bracket) (UGT1A3 [2]; UGT1A3, substrate 10 μM, listed as 5,7,4’THFnol): no regiospecific preference between 3-O and 7-O; also recorded: did not show dominant regiospecificity for 7-O position
